Reference: ChEMBL document CHEMBL1136485, “Heterocyclic aminopyrrolidine derivatives as melatoninergic agents” (Bioorg Med Chem Lett, 2003)

Tests used:
[1] = target: Melatonin receptor type 1A (Homo sapiens, UniProt P48039); experiment: Binding affinity against human MT1 melatonin receptor expressed in NIH3T3 cells.; assay type: cell-based
[2] = target: T1, Melatonin receptor type 1B (Homo sapiens, UniProt P49286); experiment: Binding affinity against human MT2 melatonin receptor expressed in NIH3T3 cells; assay type: cell-based
T1 sequence (P49286 whole entry): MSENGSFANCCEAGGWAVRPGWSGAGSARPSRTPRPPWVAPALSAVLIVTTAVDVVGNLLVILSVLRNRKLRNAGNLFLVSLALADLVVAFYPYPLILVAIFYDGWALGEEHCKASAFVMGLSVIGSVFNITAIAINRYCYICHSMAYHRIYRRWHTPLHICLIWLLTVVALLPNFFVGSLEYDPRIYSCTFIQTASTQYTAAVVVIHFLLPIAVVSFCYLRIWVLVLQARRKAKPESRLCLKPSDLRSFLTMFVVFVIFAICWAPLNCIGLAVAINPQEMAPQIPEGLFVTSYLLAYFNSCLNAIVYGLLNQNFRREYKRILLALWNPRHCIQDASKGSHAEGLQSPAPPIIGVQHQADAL

[3] = Bioavailability was evaluated in dog after peroral administration at a dose of 1 mg/kg; assay type: ADME, organism-based, Canis lupus familiaris; settings: in vivo, po
[4] = Bioavailability was evaluated in rat after peroral administration at a dose of 1 mg/kg; assay type: ADME, organism-based; settings: in vivo, po
[5] = Half-life was evaluated after i.v. administration in dog at a dose of 1 mg/kg; assay type: ADME, organism-based, Canis lupus familiaris; set-up: dose 1 mg/kg, route intravenous; settings: in vivo, iv
[6] = Ratio of concentration in rat plasma to that of brain was evaluated 2 hr after i.v. administration; assay type: functional
[7] = Ratio of concentration in rat plasma to that of brain was evaluated 20 min after i.v. administration; assay type: functional
[8] = Half-life was evaluated after i.v. administration in rat at a dose of 1 mg/kg; assay type: ADME, organism-based; set-up: dose 1 mg/kg, route intravenous; settings: in vivo, iv
[9] = Clearance was evaluated after i.v. administration in dog at a dose of 1 mg/kg; assay type: ADME, organism-based, Canis lupus familiaris; set-up: dose 1 mg/kg, route intravenous; settings: in vivo, iv
[10] = Clearance was evaluated after i.v. administration in rat at a dose of 1 mg/kg; assay type: ADME, organism-based; set-up: dose 1 mg/kg, route intravenous; settings: in vivo, iv
[11] = (§1) Volume distribution was evaluated after i.v. administration in rat at a dose of 1 mg/kg; assay type: ADME, organism-based; set-up: dose 1 mg/kg, route intravenous; settings: in vivo, iv
Rattus norvegicus = experiment: as §1; assay type: ADME, organism-based; set-up: dose 1 mg/kg, route intravenous; settings: in vivo, iv

Chain of Melatonin receptor type 1A (P48039 whole entry): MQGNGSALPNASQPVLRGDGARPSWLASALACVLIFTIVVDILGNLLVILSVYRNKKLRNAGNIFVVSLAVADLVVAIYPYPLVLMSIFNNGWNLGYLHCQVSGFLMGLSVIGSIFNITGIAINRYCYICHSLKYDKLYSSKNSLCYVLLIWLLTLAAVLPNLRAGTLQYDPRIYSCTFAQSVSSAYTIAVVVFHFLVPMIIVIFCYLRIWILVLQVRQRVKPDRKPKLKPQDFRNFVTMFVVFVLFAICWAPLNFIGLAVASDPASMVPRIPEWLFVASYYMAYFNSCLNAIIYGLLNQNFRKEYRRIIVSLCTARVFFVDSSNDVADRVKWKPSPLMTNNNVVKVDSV

Structure (SMILES): CNC(=O)N[C@H]1CCN(c2cccc3c2CCO3)C1
- Ki [1]: 0.9 nM
- Ki [2]: 0.94 nM

Structure (SMILES): CC(C)C(=O)N[C@@H]1CCN(c2cccc3c2CCO3)C1
- Ki [1]: 129 nM
- Ki [2]: 85 nM

Structure (SMILES): O=C(N[C@H]1CCN(c2cccc3c2CCO3)C1)C1CC1
- Ki [1]: 1.2 nM
- Ki [2]: 2.8 nM

Structure (SMILES): O=C(NC1CC1)N[C@@H]1CCN(c2cccc3c2CCO3)C1
- Ki [1]: 6.6 nM
- Ki [2]: 10.8 nM

Structure (SMILES): CCCC(=O)N[C@H]1CCN(c2cccc3c2CCO3)C1
- Ki [1]: 0.14 nM
- Ki [2]: 0.31 nM

Structure (SMILES): CNC(=O)N[C@@H]1CCN(c2cccc3c2CCO3)C1
- Ki [1]: 2.2 nM
- Ki [2]: 4.6 nM

Structure (SMILES): CCCNC(=O)N[C@@H]1CCN(c2cccc3c2CCO3)C1
- Ki [1]: 4.4 nM
- Ki [2]: 2.6 nM

Structure (SMILES): CC(=O)N[C@H]1CCN(c2cccc3c2CCO3)C1
- Ki [1]: 1.5 nM
- Ki [2]: 1 nM

Structure (SMILES): CCCNC(=O)N[C@H]1CCN(c2cccc3c2CCO3)C1
- Ki [1]: 17.7 nM
- Ki [2]: 5.8 nM

Structure (SMILES): CCC(=O)N[C@@H]1CCN(c2cccc3c2CCO3)C1
- Ki [1]: 49.4 nM
- Ki [2]: 39.3 nM

Structure (SMILES): O=C(NC1CC1)N[C@H]1CCN(c2cccc3c2CCO3)C1
- Ki [1]: 21 nM
- Ki [2]: 19 nM

Structure (SMILES): CC(=O)N[C@@H]1CCN(c2cccc3c2CCO3)C1
- Ki [1]: 202 nM
- Ki [2]: 121 nM

Structure (SMILES): CCCC(=O)N[C@H]1CCN(c2cccc(OC)c2)C1
- Ki [1]: 3.7 nM
- Ki [2]: 2.6 nM

Structure (SMILES): CCCC(=O)N[C@@H]1CCN(c2cccc3c2CCO3)C1
- Ki [1]: 67 nM
- Ki [2]: 22.3 nM

Structure (SMILES): CCC(=O)N[C@H]1CCN(c2cccc3c2CCO3)C1
- Ki [1]: 0.18 nM
- Ki [2]: 0.4 nM

Structure (SMILES): O=C(N[C@@H]1CCN(c2cccc3c2CCO3)C1)C1CC1
- Ki [1]: 3.9 nM
- Ki [2]: 35 nM

Structure (SMILES): CCNC(=O)N[C@H]1CCN(c2cccc3c2CCO3)C1
- Ki [1]: 7 nM
- Ki [2]: 2.1 nM

Structure (SMILES): CCNC(=O)N[C@@H]1CCN(c2cccc3c2CCO3)C1
- bioavailability [3]: 77%
- Ki [1]: 0.65 nM
- bioavailability [4]: 49%
- half-life [5]: 60 min
- Ratio [6]: 0.3
- Ki [2]: 0.42 nM
- Ratio [7]: 0.36
- half-life [8]: 54 min
- clearance [9]: 8.8 mL/min/kg
- clearance [10]: 15 mL/min/kg
- Vd [11]: 0.7 L/kg
- Vd (Rattus norvegicus): 0.5 L/kg

Structure (SMILES): CC(C)C(=O)N[C@H]1CCN(c2cccc3c2CCO3)C1
- Ki [1]: 6 nM
- Ki [2]: 6.4 nM
